According to paper PMC6522510 (Nature Communications, 2019):

What was measured:
ML-2 = assay: cells; set-up: species or system AML cell lines (8); Secondary HTS, 10-point dose-response in triplicate, Cell Titer Glo viability, four-parameter fit EC50; conditions: Homo sapiens, ML-2, 72 h, read-out: ML-2
CMK = assay: cells; set-up: species or system AML cell lines (8); Secondary HTS, 10-point dose-response in triplicate, Cell Titer Glo viability, four-parameter fit EC50; conditions: Homo sapiens, CMK, 72 h, read-out: CMK
MV4-11 [1] = assay: cells; set-up: species or system AML cell lines (8); Secondary HTS, 10-point dose-response in triplicate, Cell Titer Glo viability, four-parameter fit EC50; conditions: Homo sapiens, MV4-11, 72 h, read-out: MV4-11
M07e = assay: cells; set-up: species or system AML cell lines (8); Secondary HTS, 10-point dose-response in triplicate, Cell Titer Glo viability, four-parameter fit EC50; conditions: M-07e, 72 h, read-out: M07e
U937 = assay: cells; set-up: species or system AML cell lines (8); Secondary HTS, 10-point dose-response in triplicate, Cell Titer Glo viability, four-parameter fit EC50; conditions: Homo sapiens, U-937, 72 h, read-out: U937
CHRF288-11 = assay: cells; set-up: species or system AML cell lines (8); Secondary HTS, 10-point dose-response in triplicate, Cell Titer Glo viability, four-parameter fit EC50; conditions: 72 h, read-out: CHRF288-11
MOLM-13 = assay: cells; set-up: species or system AML cell lines (8); Secondary HTS, 10-point dose-response in triplicate, Cell Titer Glo viability, four-parameter fit EC50; conditions: Homo sapiens, MOLM-13, 72 h, read-out: MOLM-13
CMS = assay: cells; set-up: species or system AML cell lines (8); Secondary HTS, 10-point dose-response in triplicate, Cell Titer Glo viability, four-parameter fit EC50; conditions: 72 h, read-out: CMS
MV4-11 [2] = assay: Secondary dose-response HTS, Cell Titer Glo; type: cell-based, human; conditions: Homo sapiens; secondary high-throughput screen; MV4-11; read-out: average effective concentration, MV4-11

Row | Structure (SMILES) | EC50 (ML-2) [µM] | EC50 (CMK) [µM] | EC50 (MV4-11 [1]) [µM] | EC50 (M07e) [µM] | EC50 (U937) [µM] | EC50 (CHRF288-11) [µM] | EC50 (MOLM-13) [µM] | EC50 (CMS) [µM] | EC50 (MV4-11 [2]) [µM]
1 | CCOC(=O)c1ccc(C#Cc2ccc3c(c2)C(C)(C)CCS3)nc1 [TAZAROTENE] | > 10 | > 10 | > 10 | > 10 | > 10 | > 10 | > 10 | > 10 | 
2 | Cn1nnc2c(C(N)=O)ncn2c1=O [TEMOZOLOMIDE] | > 10 | > 10 | > 10 | > 10 | > 10 | > 10 | > 10 | > 10 | 
3 | CO[C@H]1C[C@@H]2CC[C@@H](C)[C@@](O)(O2)C(=O)C(=O)N2CCCC[C@H]2C(=O)O[C@H]([C@H](C)C[C@@H]2CC[C@@H](OC(=O)C(C)(CO)CO)[C@H](OC)C2)CC(=O)[C@H](C)/C=C(\C)[C@@H](O)[C@@H](OC)C(=O)[C@H](C)C[C@H](C)/C=C/C=C/C=C/1C [TEMSIROLIMUS] | > 10 | > 10 | > 10 | > 10 | > 10 | > 10 | > 10 | > 10 | 
4 | COc1cc2nccc(Oc3ccc(NC(=O)Nc4cc(C)on4)c(Cl)c3)c2cc1OC [TIVOZANIB] | > 10 | > 10 |  | > 10 | > 10 | > 10 | > 10 | > 10 | 7.8
5 | CC1=C(/C=C/C(C)=C/C=C/C(C)=C/C(=O)O)C(C)(C)CCC1 [TRETINOIN] | > 10 | > 10 | > 10 | > 10 | > 10 | > 10 | > 10 | > 10 | 
6 | C[C@]1(c2nc3c(C(N)=O)cccc3[nH]2)CCCN1 [VELIPARIB] | > 10 | > 10 | > 10 | > 10 | > 10 | > 10 | > 10 | > 10 | 
7 | CCCS(=O)(=O)Nc1ccc(F)c(C(=O)c2c[nH]c3ncc(-c4ccc(Cl)cc4)cc23)c1F [VEMURAFENIB] | > 10 | > 10 | > 10 | > 10 | > 10 | > 10 | > 10 | > 10 | 
8 | CS(=O)(=O)c1ccc(C(=O)Nc2ccc(Cl)c(-c3ccccn3)c2)c(Cl)c1 [VISMODEGIB] | > 10 | > 10 | > 10 | > 10 | > 10 | > 10 | > 10 | > 10 | 
9 | COc1ccc(Cl)c(Nc2nc3ccccc3nc2NS(=O)(=O)c2cccc(NC(=O)C(C)(C)N)c2)c1 [XL147] | > 10 | > 10 | > 10 | > 10 | > 10 | > 10 | > 10 | > 10 | 
10 | FC(F)c1nc2ccccc2n1-c1nc(N2CCOCC2)nc(N2CCOCC2)n1 [ZSTK-474] | > 10 | > 10 | > 10 | > 10 | > 10 | > 10 | > 10 | > 10 | 
